Source: patent publication US20170095440A1, “METHOD OF TREATING CANINE PANCREATITIS” (CK9, LLC, priority 2014, published 2017)
“Also recorded” adds a separate entry of the source.

Tested on: dogs with suspected chronic pancreatitis
Test: Serum S100A12 before and after treatment, clinical trial
Format: in vivo, dog
Conditions: for Change in serum S100A12, pre- vs post-treatment: methanesulfonate
Description: Treatment effects on overall health status, quality of life, and clinical signs were also evaluated with serum biochemistry profiles, complete blood counts, and owner questionnaires.
Dogs were identified by screening current submissions to the Gastrointestinal Laboratory at Texas A&M indicative of pancreatitis (canine pancreas-specific lipase≧400 μg/L) using an immunoassay for measurement of canine pancreas-specific lipase in canine serum known as the spec CPL® Test (IDEXX, Laboratories). A number of potential study participants were directly referred to the investigator by veterinarians, based on positive pet-side SNAP cPL® Test (IDEXX Laboratories, Westbrook, Me., USA) results and concomitant clinical signs. After ascertaining individual suitability of a patient with the referring veterinarian, serum canine pancreas-specific lipase concentration, serum biochemistry profile, and complete blood count were evaluated or re-evaluated 12±4 days after collection of the initial sample submission to the Gastrointestinal Laboratory. Based on the assumption that consecutive canine pancreas-specific lipase elevations indicate chronic pancreatitis, enrollment was offered for patients with canine pancreas-specific lipase concentrations≧400 μg/L, serum triglyceride concentrations below 500 mg/dL, and no indication of hepatic, renal, or other organ disease. […] Owner consent was required prior to phlebotomy and for enrollment into the trial.
Twelve enrolled dogs received camostat capsules at a dosage of 4 mg/kg q 8 hrs, for a total dose of 12 mg/kg q 24 hrs. […] Individual patients were medicated for between 21 to 31 days.
Blood samples were collected before beginning the treatment and after completion of the treatment period. Complete blood count (red blood cell count, hematocrit, mean corpuscular volume, mean corpuscular hemoglobin, mean corpuscular hemoglobin concentration, differential and absolute white blood cell count, red blood cell count, hemoglobin, platelet estimate, red blood cell morphology, white blood cell morphology, and hemoparasites) was evaluated at the Texas Veterinary Medical Diagnostic Laboratory (TVMDL). A serum chemistry profile with electrolytes (glucose, blood urea nitrogen, creatinine, calcium, phosphorus, albumin, total protein, total bilirubin, alkaline phosphatase, alanine amino transferase, aspartate amino transferase, γ-glutamyl transferase, cholesterol, triglycerides, globuline, sodium, potassium, and chloride) was performed on a SIRRUS analyzer (Stanbio, Boerne, Tex., USA). […]
Pre-treatment and post-treatment results for all diagnostic tests were statistically analyzed using Prism 6 (GraphPad Software, La Jolla, Calif., USA). […]

Structure (SMILES): CN(C)C(=O)COC(=O)Cc1ccc(OC(=O)c2ccc(NC(=N)N)cc2)cc1 [Camostat Mesilate, N,N-dimethylcarbamoylmethyl-4-(4-guanidinobenzoyloxy)phenylacetate methanesulfonate]
- Change in serum S100A12, pre- vs post-treatment (4 mg/kg q 8 hrs, n=11): decreased significantly
- Serum S100A12 concentration post-treatment (median) (4 mg/kg q 8 hrs, n=11, pre-treatment median 160, post range 43-449, p=0.0010): 88 µg/L
- Change in serum S100A12, pre- vs post-treatment (all treated dogs combined, n=28): no significant difference; also recorded: did not change significantly; also recorded: did not lead to any significant changes
- Serum S100A12 concentration post-treatment (median) (all treated dogs combined, n=28, pre-treatment median 154, post range 43-746, p=0.1438): 133 µg/L
